Here are results for 2 compounds from PubChem BioAssay AID1963431 (Molecular Pharmacology Branch, DTP, NCI, 2024).

The subject of this experiment is Rh18 complex spheroid viability, percent test/control. In words: Anticancer human tumor Rh18 cell line growth inhibition [Asc].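 For all read-outs here: spheroids exposed to compound for 7 days.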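 For viability, T/C: 100% = DMSO vehicle control wells.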 To be noted: for viability, T/C: stronger effect = lower value. The essentials: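 Tumor cells were grown as multicellular spheroids with stromal HUVEC and mesenchymal stem cells and treated singly or in combination. Concentrations fell in half-log steps from the clinical Cmax, or from 10 microM where none was known.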

“And” between values parts separate entries of the source, which are not always exact repeats. Identical values can stand only once.

`NC1CCC(NC2CC2c2ccccc2)CC1` (configuration not stated) + CCN1C(C(=O)NC23CCC(C(=O)O)(CC2)CC3)C(c2cccc(Cl)c2F)C2(C(=O)Nc3cc(Cl)ccc32)C12CCCCC2: the 50% inhibitory concentration (IC50) (commonly the concentration needed to halve the response being measured) reads like this: (curve of first compound, second compound 0.03 µM) under 0.316 nM; (curve of first compound, second compound 0.0949 µM) under 0.316 nM; (curve of first compound, second compound 0.3 µM) under 0.316 nM; (curve of first compound, second compound 0.949 µM) under 0.316 nM; (curve of first compound, second compound 3 µM) under 0.316 nM. The viability, T/C (in general, the ratio of treated to control) by setting is: (second compound 0.03 µM, first compound 0.000316 µM) 31.7%; (second compound 0.03 µM, first compound 0.001 µM) 31.3%; (second compound 0.03 µM, first compound 0.00316 µM) 30.4%; (second compound 0.03 µM, first compound 0.01 µM) 29.5%; (second compound 0.03 µM, first compound 0.0316 µM) 33.9%; (second compound 0.03 µM, first compound 0.1 µM) 34.5%. Besides, the viability, T/C by setting is: (second compound 0.0949 µM, first compound 0.000316 µM) 19.3%; (second compound 0.0949 µM, first compound 0.001 µM) 23.4%; (second compound 0.0949 µM, first compound 0.00316 µM) 18.8%; (second compound 0.0949 µM, first compound 0.01 µM) 19%; (second compound 0.0949 µM, first compound 0.0316 µM) 19.6%; (second compound 0.0949 µM, first compound 0.1 µM) 20.9%. Further, the viability, T/C reads like this: (second compound 0.3 µM, first compound 0.000316 µM) 11.1%; (second compound 0.3 µM, first compound 0.001 µM) 13.3%; (second compound 0.3 µM, first compound 0.00316 µM) 13%; (second compound 0.3 µM, first compound 0.01 µM) 13.3%; (second compound 0.3 µM, first compound 0.0316 µM) 12.9%; (second compound 0.3 µM, first compound 0.1 µM) 14.4%. Also, the viability, T/C was 11.6% (second compound 0.949 µM, first compound 0.000316 µM); 10.8% (second compound 0.949 µM, first compound 0.001 µM); 9.55% (second compound 0.949 µM, first compound 0.00316 µM); 8.96% (second compound 0.949 µM, first compound 0.01 µM); 10.3% (second compound 0.949 µM, first compound 0.0316 µM); 11.3% (second compound 0.949 µM, first compound 0.1 µM). The viability, T/C is 11% (second compound 3 µM, first compound 0.000316 µM); 10.2% (second compound 3 µM, first compound 0.001 µM); 11.8% (second compound 3 µM, first compound 0.00316 µM); 10.1% (second compound 3 µM, first compound 0.01 µM); 8.61% (second compound 3 µM, first compound 0.0316 µM); 9.99% (second compound 3 µM, first compound 0.1 µM).

`Cn1ncnc1[C@H]1c2n[nH]c(=O)c3cc(F)cc(c23)N[C@@H]1c1ccc(F)cc1`: the viability, T/C (compound 0.000316 µM) is 113% and 102% and 90.3%; the viability, T/C (compound 0.001 µM) was 101% and 99.1% and 69.5%; the viability, T/C (compound 0.00316 µM) was 79.1% and 73.3% and 49.3%; the viability, T/C (compound 0.01 µM) is 51.2% and 49.3% and 46.3%; the viability, T/C (compound 0.0316 µM) is 41.5% and 46.6% and 46.8%; the viability, T/C (compound 0.1 µM) was 41.6% and 51.8% and 40.3%. The IC50 (curve of compound) was 12.9 nM and 10.8 nM and 3.16 nM.
